# Source: article PMC7055300, “Theileria parasites subvert E2F signaling to stimulate leukocyte proliferation” (Scientific Reports, 2020)
# “Also recorded” adds a separate entry of the source.
# Key:
# [1] = tested on: T. annulata-infected TBL20 cells; assay: Cell proliferation, T. annulata-infected B cells (TBL20), hemacytometer count; assay type: cell-based, bovine; settings: T. annulata-infected TBL20, HLM006474 10 μM in DMSO, average of 3 independent experiments
# Experimental: (§1) (a) TpMD409B.2 cells were transfected with E2F-luc (WT = wild-type E2F binding construct), or mutated E2F-luc constructs (labeled ‘mutated’) together with a CMV-lacZ plasmid to normalize for transfection efficiency. Luciferase and β-galactosidase activities were measured 24 hrs after transfection. E2F-luc relative luciferase activity normalized to mE2F-luc. Shown is the average of 3 independent experiments with standard deviation. BL20 or TBL20 cells were treated with (b) 1μM of penetrating peptides ([…]-K(FITC)) containing the TpGcpE LXCXE motif, or an LXNXE control ([…]-K(FITC)) or (c) E2F inhibitor or DMSO control, and then counted by hemacytometer after the indicated timepoints. Shown is the average of 3 independent experiments with standard deviation. Then, either (d) virulent Ode T. annulata-transformed macrophages, or (e) BL20/TBL20 T. annulata-transformed cells were transfected with E2F-luc plasmid (or mutated E2F-luc as in (c)) and incubated for 24 hrs at 37 °C. Then, cells were treated with penetrating peptides as in (b) for 2 hrs and luciferase activity was quantified. Data shown are representative of three independent experiments done with biological duplicates, with mean + standard deviation (*P-value < 0.05 compared to untreated; ^‡P-value < 0.05 compared to its respective BL20 control).
# The TpMD409.B2 cell line is a T. parva Muguga-infected B-cell clone (B2) whose establishment, phenotypic characteristics and culture conditions have been described[25]–[27]. BL20 cells are a retrovirus-transformed B cell line isolated from an infected cow. To eliminate the parasite, cells were treated for the indicated time with buparvaquone (50 ng/ml, 1 mg/ml stock in ethanol; Sigma). To inhibit E2F activity, cells were treated for the indicated time with HLM006474 (10 μM in DMSO, Sigma), or DMSO (10μM; Sigma) as a control. The T. annulata-infected cell lines BL20 (B cell), as well as Ode (macrophage) cell lines are well described and characterized.
# The amino acid sequence of RB-1 based on the parasite sequence ([…]) was synthesized. Cysteine in wild type RB1 was replaced by an Asparagine (N; in bold […]). The penetrating peptide to facilitate cell entry is underlined.
# uninfected BL20 cells = assay: Cell proliferation, uninfected B cells (BL20), hemacytometer count; assay type: cell-based, bovine; settings: uninfected BL20, HLM006474 10 μM in DMSO, average of 3 independent experiments
# Experimental: as §1, with “control). […]” for “control).”
# BL20/TBL20 cells = assay type: cell-based, bovine; settings: HLM006474 10 μM; data not shown
# Experimental: Since the LXCXE peptide can induce E2F activity, we investigated whether it could, on its own, increase bovine leukocyte proliferation. To extend our observations to T. annulata-infected leukocytes, we incubated T. annulata-infected B cells with WT or mutated LXNXE peptides and counted cell numbers at 24 h and 48 h.
# The amino acid sequence of RB-1 based on the parasite sequence ([…]) was synthesized. Cysteine in wild type RB1 was replaced by an Asparagine (N; in bold […]). The penetrating peptide to facilitate cell entry is underlined. 3 different concentrations of peptides were used for 2 h to determine the minimum effective concentration (1 μM) with minimum toxic effect, which was used to perform each experiment as indicated.
# [2] = tested on: T. parva-transformed TpMD409.B2 cells; assay: Flow cytometric BrdU incorporation; assay type: cell-based, bovine; settings: untreated vs buparvaquone-treated, 24 h and 48 h
# Excerpt: The discovery of these peptides led us to investigate the particular RB/E2F signaling components in Theileria-infected cells. Eight E2F transcription factor genes have been identified in mammals, which can be divided into two groups: activators (E2F-1, E2F-2, E2F-3a), which can bind RB, and repressors (e.g. E2F-3b, E2F-4, E2F-5), which can bind RB, p107 and p130. The balance between the activator and repressor E2Fs seems to be primarily controlled by the phosphorylation status of the associated pocket proteins to which they bind. E2F interactions with the Dimerization Partner (DP) ligands are also important for regulating E2F transcription factor activity. We used Western blot to compare the levels of RB family, E2F, and DP-1 protein between T. parva-transformed cells that were left untreated with those treated with buparvaquone to kill the parasite and induce an arrest in host cell proliferation. By comparing expression levels between the buparvaquone-treated and untreated groups, we can determine parasite-dependent changes in the expression levels of these proteins. […]
# Figure 2 RB/E2F signaling is activated by Theileria parasites. (a) Western blot analysis (left) of E2F-1, E2F-3 E2F-4, DP-1, pRB, and p130 expression in TpMD409B.2 cells, either left untreated (−), or treated (+) for 24 h and 48 h with buparvaquone (BQ), including band intensity quantification (right). […]
# [3] = tested on: T. parva-transformed TpMD409.B2 cells; assay: Western blot of RB/E2F pathway proteins after parasite killing; assay type: cell-based, bovine; settings: buparvaquone 50 ng/ml
# Excerpt: The discovery of these peptides led us to investigate the particular RB/E2F signaling components in Theileria-infected cells. Eight E2F transcription factor genes have been identified in mammals, which can be divided into two groups: activators (E2F-1, E2F-2, E2F-3a), which can bind RB, and repressors (e.g. E2F-3b, E2F-4, E2F-5), which can bind RB, p107 and p130. The balance between the activator and repressor E2Fs seems to be primarily controlled by the phosphorylation status of the associated pocket proteins to which they bind. E2F interactions with the Dimerization Partner (DP) ligands are also important for regulating E2F transcription factor activity. We used Western blot to compare the levels of RB family, E2F, and DP-1 protein between T. parva-transformed cells that were left untreated with those treated with buparvaquone to kill the parasite and induce an arrest in host cell proliferation. By comparing expression levels between the buparvaquone-treated and untreated groups, we can determine parasite-dependent changes in the expression levels of these proteins. […] These faster migrating bands likely correspond to hypophosphorylated, proliferation-suppressive forms of RB and p130, at 24 h and 48 h after treatment with buparvaquone.
# Figure 2 RB/E2F signaling is activated by Theileria parasites. (a) Western blot analysis (left) of E2F-1, E2F-3 E2F-4, DP-1, pRB, and p130 expression in TpMD409B.2 cells, either left untreated (−), or treated (+) for 24 h and 48 h with buparvaquone (BQ), including band intensity quantification (right). Shown are representatives of three independent experiments. (b) E2F DNA binding activity in TpMD409B.2 cells was assayed by EMSA using gP32- labeled double-stranded oligonucleotide spanning E2F binding sites from the dhfr gene promoter. Left panel, nuclear extracts from TpMD409B.2 cells were incubated with γP32-labeled probe in absence or presence of a 100 fold molar excess of unlabeled wild type (WT), or mutated (MUT) double-stranded oligonucleotide. Binding reactions were resolved by non-denaturing polyacrylamide gel, which was processed afterwards for autoradiography. Right panel, EMSA analysis of E2F DNA binding activity in nuclear extracts from untreated, proliferating TpMD409B.2 cells (−) and TpMD409B.2 cells treated for 24 and 48 h with the parasiticidal drug buparvaquone (+). Arrows indicate E2F in complex with RB family proteins (Complexes) or free E2F protein (Free). (c) Flow cytometric analysis of BrdU incorporation and DNA content in TpMD409B.2 cells, either left untreated (control), or treated with buparvaquone for 24 h and 48 h. Shown is a representative of three independent experiments. […]
# [4] = tested on: E2F binding sites from the dhfr gene promoter; TpMD409.B2 nuclear extracts; assay: E2F DNA binding activity by EMSA; assay type: cell-based, bovine; settings: buparvaquone 50 ng/ml, 24 h and 48 h
# Experimental: (a) Western blot analysis (left) of E2F-1, E2F-3 E2F-4, DP-1, pRB, and p130 expression in TpMD409B.2 cells, either left untreated (−), or treated (+) for 24 h and 48 h with buparvaquone (BQ), including band intensity quantification (right). Shown are representatives of three independent experiments. (b) E2F DNA binding activity in TpMD409B.2 cells was assayed by EMSA using gP32- labeled double-stranded oligonucleotide spanning E2F binding sites from the dhfr gene promoter. Left panel, nuclear extracts from TpMD409B.2 cells were incubated with γP32-labeled probe in absence or presence of a 100 fold molar excess of unlabeled wild type (WT), or mutated (MUT) double-stranded oligonucleotide. Binding reactions were resolved by non-denaturing polyacrylamide gel, which was processed afterwards for autoradiography. […]
# [5] = biological target: T1, Retinoblastoma-1 (RB) pocket domain (Homo sapiens, UniProt P06400); assay: Surface plasmon resonance binding to RB pocket domain; settings: SPR, RB pocket domain on sensor chip; sequence-scrambled peptides as negative controls
# T1 construct: Recombinant, purified RB pocket domain was coupled to the surface of the sensor chip; purchased LDBiopharma HTF-1035
# T1 sequence (P06400 373-771 limits assumed): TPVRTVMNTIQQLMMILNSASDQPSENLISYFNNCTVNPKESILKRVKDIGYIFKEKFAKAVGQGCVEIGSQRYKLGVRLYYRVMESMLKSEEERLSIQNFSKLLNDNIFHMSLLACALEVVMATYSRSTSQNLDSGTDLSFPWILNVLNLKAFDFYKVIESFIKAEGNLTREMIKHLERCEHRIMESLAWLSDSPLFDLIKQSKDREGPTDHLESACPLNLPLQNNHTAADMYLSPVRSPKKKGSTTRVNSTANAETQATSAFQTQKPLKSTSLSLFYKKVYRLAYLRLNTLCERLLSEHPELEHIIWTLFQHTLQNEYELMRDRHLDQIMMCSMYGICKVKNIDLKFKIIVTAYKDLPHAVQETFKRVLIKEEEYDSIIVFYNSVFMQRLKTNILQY
# Excerpt: Since the proliferation of T. parva-infected host cells is thought to be critical for the pathogenesis of infection, we investigated whether synthesized peptides, each 9 to 19 amino acids long and containing these 15 T. parva motifs, could bind to RB (Supplementary Table 1). Surface plasmon resonance (SPR) was used to screen these peptides for specific RB1 pocket domain-binding activity. Recombinant, purified RB pocket domain was coupled to the surface of the sensor chip, and purified peptides were introduced at various concentrations to quantify kinetics if response curves indicated a detectable protein-protein interaction. Sequence-scrambled peptides were used as negative controls to exclude false-positive signals.
# Immobilization of human RB1 protein to CM5 chip
# Surface preparation. […]
# Kinetics analysis of binding. […] The analytes (60 µl each, 0–25 µM in HBS-EP buffer with 0.05% P20) were injected into flow cell and the association of analyte and ligand were recorded respectively by surface plasmon resonance (SPR) with a Biacore T200 (Biacore, Inc., New Jersey). […]
# Data analysis. Sensorgrams of the interaction generated by the instrument were analyzed using the software BIAeval 3.2 (Biacore Inc., New Jersey). […]
compound,measurement,setting,value
"CCOc1ccc(C(Nc2ccccn2)c2ccc3ccc(C)nc3c2O)cc1C (stereo not shown) [HLM006474, reference compound]",proliferation with E2F inhibitor,[1],specifically reduced the proliferation of T. annulata-infected TBL20 cells
same,proliferation with E2F inhibitor,[1]; listed as HLM0006474,specifically inhibit the proliferation of T. annulata-infected
same,proliferation with E2F inhibitor,uninfected BL20 cells,not uninfected BL20 cells
same,proliferation with E2F inhibitor,uninfected BL20 cells; listed as HLM0006474,not uninfected bovine B cell lines
same,dependence of the effect on cell death,BL20/TBL20 cells,not dependent on cell death
CC(C)(C)[C@H]1CC[C@H](CC2=C(O)C(=O)c3ccccc3C2=O)CC1 [buparvaquone],"proliferation, dependence on the parasite",[2],Proliferation was also confirmed to be dependent on the parasite
same,pRB and p130 migration,"[3]; 24 h and 48 h, vs untreated",migrate faster in parasite-killed TpMD409.B2 cells than in untreated cells
same,E2F-4 protein levels,[3]; 48 h,E2F-4 levels remain unaltered
same,slower-migrating DP-1 band,[3]; 48 h,a slower-migrating DP-1 band increases
same,E2F-1 and E2F-3 protein levels,[3]; after 48 h but not 24 h,E2F-1 and E2F-3 protein levels decrease
same,E2F DNA binding activity,[4],overall decrease in E2F DNA binding activity
same,slow and intermediate complexes bound to E2F-dependent promoter,[4],increase in complexes migrating at slow and intermediate speed bound to an E2F-dependent promoter
"RDELQGVIQLLYDRYNKYI [TpMuguga_02g02355, SPR screening peptide […] with an LXXLFD motif from TpMuguga_02g02355]",RB binding in words,[5],bound the RB pocket domain with nanomolar affinity; also recorded: bind RB in a sequence-specific fashion
